Here are results for 4 compounds from patent US8445190B2, “Method of inhibiting biomaterial-induced procoagulant activity using complement inhibitors” (The Trustees of the University of Pennsylvania, priority 2008, dated 2013).

Where no end group is shown, it is not given here.

Experiment [1] has as its system TF-dependent procoagulant activity of PMN culture supernatants. In words: mPT of PMN supernatants after incubation with serum preincubated with polysulfone hemodialysis filter fibers. It is filed as cell-based, human. As to conditions: for mPT: FIG. 5C. As for the experimental part:
(§1) FIG. 5: Hemodialysis filter fibers induce in vitro TF dependent procoagulant properties in both ESRD and healthy serum through complement activation. […] C3b generation was detected by […]. CVF-activated plasma was used as a standard for 100% complement activation. The percentage of complement activation is depicted in the diagram. B: Serum from healthy donors was preincubated with hollow fibers from polysulfone hemodialysis filters at different time periods (10, 30, 60 & 120 min). PMNs were incubated with the pretreated serum and their supernatants were assayed for TF with mPT. A time-dependent procoagulant activity was observed (bar 2: 28.06±0.21, 3: 27.32±0.39, 4: 25.65±0.78, 5: 24.67±0.47, p<0.01 compared to bar 1: 31.81±0.28), which was blocked by the addition of anti-TF mAb in supernatants showing the highest procoagulant effect (bar 6: 31.49±0.12, p<0.05 compared to bar 5). C: Predialysis ESRD serum preincubated for 60 min with filter fibers, induced stronger procoagulant activity in PMN culture supernatants compared to when healthy serum was used (bars 3: 25.65±0.78, 6: 20.06±0.35, p<0.01 compared to bars 1: 33.12±0.25, 2: 29.07±0.33, respectively). Inhibitions with compstatin or C5aR antagonist, in both pre-treated sera, elucidated that the observed TF-dependent procoagulant activity was complement mediated (bars 4: 29.60±0.57, 5: 29.15±0.49 & 7: 26.85±0.21, 8: 26.05±0.35, p<0.01 compared to bars 3 and 6, respectively).
Complement and anaphylatoxin inhibition studies. I) Compstatin, a 13-residue cyclic peptide (Ac-I[CVWQDWGAHRTC]TNH2) that inhibits the cleavage of native C3 by the C3 convertase, was used as a specific inhibitor of complement activation at the C3 level. […]
At the end of the incubation period, supernatants of cells were collected by centrifugation at 800 g for 10 min and were checked a second time to confirm the absence of cells and platelets. The coagulation activity properties (TF/FVIIa binding activity) of the cell supernatants were determined using a modified prothrombin time (mPT) assay. […]

Experiment [2] shares this test system. Description: modified prothrombin time (mPT) of supernatants of healthy PMNs incubated with ESRD hemodialysis serum. It is filed as cell-based, human. As to conditions: for mPT values: FIG. 4A; for effect on procoagulant activity (mPT) induced by ESRD serum in PMN supernatants: in words, FIG. 1A / FIG. 4A. An excerpt:
(§2) Complement and anaphylatoxin inhibition studies. I) Compstatin, a 13-residue cyclic peptide (Ac-I[CVWQDWGAHRTC]TNH2) that inhibits the cleavage of native C3 by the C3 convertase, was used as a specific inhibitor of complement activation at the C3 level. In certain studies, a compstatin analog (1-methyl tryptophan as the 4th residue) was used. […] II) SB-290152, a selective nonpeptide antagonist of the complement anaphylatoxin receptor C3aR, was used in this study to dissect the involvement of C3aR signalling in the generation of neutrophil derived TF [27]. III) To block C5aR stimulation on neutrophils, a small cyclic hexapeptide (AcF-[OPdChaWR]) that acts as a selective C5aR antagonist was used. Sera were pre-incubated for 30 min with Compstatin or its linear analogue (15 μM final concentration), before incubation with leukocytes. Furthermore, serum for stimulation was added to leukocytes that had been pre-incubated for 30 min with C3aRa or C5aRa (5-10 μM final concentration). Approximately […] washed cells from healthy donors were used for the subsequent incubations, The final volume was adjusted with PBS at 250 μl and the leukocytes were incubated for 90-120 min at 37° C.
Modified prothrombin time (mPT) assay to examine TF mediated coagulation activity in cell supernatants, complement inhibition and anaphylatoxin receptor studies. Since it has been shown previously that TF dependent procoagulant activity in leukocyte culture supernatants is altered after C5a/C5aR stimulation or blockade, the mPT method was used in order to estimate primarily the kinetics of TF induction. The presence of TF in supernatants is probably due to the presence of the soluble, spliced TF isoform or TF microparticles.
At the end of the incubation period, supernatants of cells were collected by centrifugation at 800 g for 10 min and were checked a second time to confirm the absence of cells and platelets. The coagulation activity properties (TF/FVIIa binding activity) of the cell supernatants were determined using a modified prothrombin time (mPT) assay. Briefly, after performing the “classic” PT test (100 μl platelet poor plasma [PPP] plus 200 μl thromboplastin ISI 1.7 (Instrumentation Laboratory, Milan, Italy), the modified PT analysis was carried out. Namely, 125 μl of cell supernatant and 75 μl thromboplastin were added to 100 μl of PPP to measure the changes of PT. As control of mPT, 125 μl of PBS was used instead of cell supernatant and the in vitro clotting time usually ranged from 31 to 34 sec.
To verify that the thromboplastic activity was due to TF alone, supernatants were incubated for 30 min with a specific neutralizing anti-TF monoclonal antibody (mAb, No 4509, American Diagnostica, Greenwich, Conn., USA), 10 μg/ml, at room temperature. PT was then measured by the mPT method. Non-specific controls involved incubation with the same subclass and concentration of mouse anti-human antibodies, as well as with different secondary antibodies.
Serum of ESRD patients exerts procoagulant activity through TF induction and follows a time dependent manner during the hemodialysis course. […] The procoagulant activity of the above cell culture supernatants was measured using the mPT method.

The test system of experiment [3] is TF mRNA expression in PMNs. In words: real time RT-PCR of TF mRNA in PMNs incubated with activated ESRD serum. It is filed as cell-based, human. The conditions noted are these: FIG. 4B. As for the experimental part:
4: Involvement of the complement pathway in the procoagulant properties of ESRD serum. […] In contrast, both a selective C3aR antagonist (10 μM-30 min) and a non-active linear analogue of compstatin had no effect on mPT values (bars 6, 7: 22.99±0.26 and 24.16±0.23, respectively; p: n.s. vs. bar 3).
as §2
RNA extraction, RT & relative quantitative real-time PCR analysis. […] In order to quantify the relative expression level of the two TF isoforms with coagulant properties [(full-length TF (referred to hereafter as ‘TF’) and alternative spliced TF (asTF)], isoform specific real-time PCR was performed. In each sample TF, asTF and GAPDH mRNA sequence-specific primers and probes for detection were applied. The 2^−DDCT method was used for quantification of the target gene expression.
(In qPCR the cycle at which signal appears reflects the starting amount.)

Experiment [4] deals with complement activation (C3b generation). In words: C3b generation ELISA in plasma incubated with hemodialysis filter fibers. It is filed as biochemical. The conditions noted are these: in words; FIG. 5A; plasma with 15 mg fibers, over time, two concentrations. How it is done:
as §1, with “Inhibitions with compstatin or C5aR antagonist, in both pre-treated sera, elucidated that the observed TF-dependent procoagulant activity was complement mediated (bars 4: 29.60±0.57, 5: 29.15±0.49 & 7: 26.85±0.21, 8: 26.05±0.35, p<0.01 compared to bars 3 and 6, respectively).” left out
Background: An ELISA detects its analyte on a solid surface through an enzyme-linked reagent.

Experiment [5] concerns CD11b on blood neutrophils. Description: hemodialysis simulation with whole blood: flow cytometry of CD11b on blood neutrophils. As to conditions: in words; 40 uM in whole blood circuit; FIG. 7B. It is filed as cell-based, human. An excerpt: (§3) FIG. 7. Complement activation during hemodialysis simulation is reduced or prevented by a compstatin analog. […] A: ELISA detection of complement activation fragment C3b using a C3-9 mAB. B: Detection of cellular cascade activation by flow cytometry after surface staining of blood neutrophils for CD11b. C: Detection of coagulation cascade activation by flow cytometry after intracellular staining of blood neutrophils for tissue factor (TF).
(§4) Whole blood was collected from healthy volunteers. […] All experiments were started within 30 min after blood collection.
(§5) To minimize the blood volume needed, HPH Junior polysulfone dialyzers (Minntech Corporation) were used. Standard bloodline components served as tubing system (Arterial & venous blood lines, Set a/v for Fresenius 2008/4008, HMC Premedical S.p.A., Italy). […]
(§6) To examine the activation of crucial pathways involved in the interaction of blood with the artificial surface of the dialyzer, complement, coagulation and neutrophil activation were analyzed. Briefly, complement activation was measured in plasma using a monoclonal antibody C3-9 (2 ug/ml), which recognizes a neoantigen that is exposed in C3(H2O), C3b and C3c but not in native C3. Neutrophil activation was assessed using flow cytometry after surface staining of CD11b (PE Mouse Anti-human CD11b/Mac-1, Cat. No 555388, BD Pharmigen). […]

Experiment [6] concerns complement activation (C3b). Description: hemodialysis simulation with whole blood: ELISA of C3 cleavage products (C3-9 mAb) in plasma. It is filed as biochemical, human. As to conditions: in words; 40 uM in whole blood circuit; FIG. 7A.
Source text: as §3, §4, §5, §6

Experiment [7] concerns tissue factor (TF) in blood neutrophils. Description: hemodialysis simulation with whole blood: flow cytometry of intracellular tissue factor in blood neutrophils. It is filed as cell-based, human. As to conditions: in words; 40 uM in whole blood circuit; FIG. 7C.
Source text: as §3, §4, §5, §6

Setting [8] is: PMNs preincubated with receptor antagonist (10 μM-30 min), then ESRD serum of 15 to 30 min of hemodialysis, no antagonist bar 3: 22.96±0.22, control bar 1: 31.96±0.21.

On to `NC(N)=NCCC[C@H](NC(=O)COCC(c1ccccc1)c1ccccc1)C(=O)O` [C3aR antagonist, SB-290152], for which, in experiment [1] (in words, FIG. 5B/5C), the “effect on procoagulant activity induced by filter-fiber treated serum in neutrophil supernatants” value was “no effect on the procoagulant activity”. Moreover, the mPT values in experiment [2] (setting [8]) worked out at 22.99±0.26. Moreover, in experiment [2], the “effect on procoagulant activity (mPT) induced by ESRD serum in PMN supernatants” value was “did not affect the mPT values”.
For the compound “Acetyl-Phe-[Orn-Pro-D-cyclohexylalanine-Trp-Arg] (FXPXWR; non-natural residues; cyclised or stapled) [C5aR antagonist]”, the mPT was found to be 29.15±0.49 in experiment [1] (healthy serum preincubated 60 min with filter fibers, without inhibitor bar 3: 25.65±0.78) and 26.05±0.35 in experiment [1] (predialysis ESRD serum preincubated 60 min with filter fibers, without inhibitor bar 6: 20.06±0.35). Moreover, the mPT values in experiment [2] (setting [8]) came to 31.65±0.28. Also, the “effect on procoagulant activity (mPT) induced by ESRD serum in PMN supernatants” value in experiment [2] is “abrogated the observed procoagulant activity”. In experiment [3] (PMNs incubated with activated serum bar 1: 7.92±0.29), the “average DCt of TF mRNA” value is 9.02±0.62. The “fold decrease of TF mRNA expression” value in experiment [3] (vs. PMNs incubated with activated serum (bar 1)) is given as 2.14 fold. In experiment [3] (in words), the “effect on TF expression in PMNs (2^−DDCT analysis)” value was “inhibited the stimulation effect”.
Regarding “IAVWQDWGAHRTAT-NH2 [non-active linear analogue of compstatin, reference compound]”, the mPT values in experiment [2] (ESRD serum taken at 15 to 30 min of hemodialysis treated with peptide (15 μM-30 min), healthy donor's PMNs (N=6), untreated serum bar 3: 22.96±0.22, control bar 1: 31.96±0.21) was 24.16±0.23. Besides, the “inhibition of complement activation induced by hemodialysis biomaterials (C3b generation)” value in experiment [4] is recorded as “not inhibited”.
In the case of “I[CV^(1−Me)WQDWGAHRC]I—NH2 [compstatin analog 4[1MeW]]”, in experiment [5], the “effect on cellular activation (CD11b surface staining of neutrophils)” value was “attenuated”. Also, in experiment [6], the “effect on time-dependent complement activation (C3 cleavage products in plasma)” value was “abrogated this activation”. The “effect on coagulation cascade activation (intracellular TF in neutrophils)” value in experiment [7] is “attenuated”.
